Like-named read-outs stand apart in the source and are kept apart here.
How the values were obtained:
Experiment in all cases: biochemical
S. aureus DNA gyrase = S. aureus DNA gyrase (Staphylococcus aureus, UniProt P0A0K8+P20831); conditions: for IC50: IC50 DNA gyrase; for inhibition at 50 µM: read-out: % inhibition DNA gyrase
E. coli DNA gyrase = E. coli DNA gyrase (Escherichia coli, UniProt P0AES4+P0AES6); conditions: for IC50: IC50 DNA gyrase; for inhibition at 50 µM: read-out: % inhibition DNA gyrase
Chain of E. coli DNA gyrase (P0AES4 whole entry, one chain of several): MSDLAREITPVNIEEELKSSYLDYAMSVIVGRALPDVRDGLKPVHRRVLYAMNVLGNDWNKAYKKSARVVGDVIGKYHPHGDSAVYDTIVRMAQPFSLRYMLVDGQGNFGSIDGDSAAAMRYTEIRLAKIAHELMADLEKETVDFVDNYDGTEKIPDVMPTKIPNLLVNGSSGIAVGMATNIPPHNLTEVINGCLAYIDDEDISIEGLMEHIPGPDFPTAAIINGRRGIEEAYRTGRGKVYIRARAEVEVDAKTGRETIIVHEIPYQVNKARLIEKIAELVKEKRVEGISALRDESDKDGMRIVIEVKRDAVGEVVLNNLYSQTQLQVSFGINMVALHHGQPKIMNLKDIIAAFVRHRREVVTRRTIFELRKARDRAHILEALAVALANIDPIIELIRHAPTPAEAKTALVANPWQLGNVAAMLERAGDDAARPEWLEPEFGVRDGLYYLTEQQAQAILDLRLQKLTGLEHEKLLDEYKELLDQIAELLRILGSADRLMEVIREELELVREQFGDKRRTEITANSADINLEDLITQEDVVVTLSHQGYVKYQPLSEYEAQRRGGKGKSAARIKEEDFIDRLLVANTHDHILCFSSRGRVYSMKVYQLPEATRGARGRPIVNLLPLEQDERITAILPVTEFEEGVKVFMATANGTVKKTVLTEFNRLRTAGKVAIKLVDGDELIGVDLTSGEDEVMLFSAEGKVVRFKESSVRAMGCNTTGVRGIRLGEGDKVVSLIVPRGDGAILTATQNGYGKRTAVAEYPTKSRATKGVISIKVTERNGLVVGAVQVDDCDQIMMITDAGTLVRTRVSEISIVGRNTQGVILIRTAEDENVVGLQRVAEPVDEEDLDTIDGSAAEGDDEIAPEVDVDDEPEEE

[1] = molecular target: S. aureus Topoisomerase IV (Staphylococcus aureus, UniProt P0C1S7+P0C1U9); conditions: for inhibition at 50 µM: compound conc. 50 μM, percent of inhibition versus positive control, n/a = not active, read-out: % inhibition Topo IV
E. coli Topoisomerase IV = E. coli Topoisomerase IV (Escherichia coli, UniProt P0AFI2+P20083); conditions: for IC50: IC50 Topo IV; for inhibition at 50 µM: read-out: % inhibition Topo IV
Chain of E. coli Topoisomerase IV (P0AFI2 whole entry): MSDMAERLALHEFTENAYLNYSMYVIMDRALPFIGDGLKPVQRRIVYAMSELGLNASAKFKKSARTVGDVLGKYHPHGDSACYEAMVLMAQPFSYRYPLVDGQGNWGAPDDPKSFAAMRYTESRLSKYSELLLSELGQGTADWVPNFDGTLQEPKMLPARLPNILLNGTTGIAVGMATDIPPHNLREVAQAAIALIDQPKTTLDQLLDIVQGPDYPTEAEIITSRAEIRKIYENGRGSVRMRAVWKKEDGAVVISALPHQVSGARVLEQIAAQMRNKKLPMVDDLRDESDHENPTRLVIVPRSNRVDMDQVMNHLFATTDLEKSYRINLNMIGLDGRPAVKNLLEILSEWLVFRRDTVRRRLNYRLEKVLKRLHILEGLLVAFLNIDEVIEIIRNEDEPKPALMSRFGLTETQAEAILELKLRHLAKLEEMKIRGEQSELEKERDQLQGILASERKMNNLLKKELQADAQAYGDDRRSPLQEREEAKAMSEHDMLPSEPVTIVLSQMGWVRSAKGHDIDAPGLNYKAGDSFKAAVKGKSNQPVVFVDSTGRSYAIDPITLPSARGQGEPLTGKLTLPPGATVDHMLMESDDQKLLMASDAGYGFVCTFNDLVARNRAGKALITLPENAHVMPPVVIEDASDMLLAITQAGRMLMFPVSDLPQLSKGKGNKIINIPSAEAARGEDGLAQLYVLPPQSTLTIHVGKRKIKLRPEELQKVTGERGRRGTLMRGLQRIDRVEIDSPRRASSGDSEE
Chain of E. coli Topoisomerase IV (P20083 whole entry): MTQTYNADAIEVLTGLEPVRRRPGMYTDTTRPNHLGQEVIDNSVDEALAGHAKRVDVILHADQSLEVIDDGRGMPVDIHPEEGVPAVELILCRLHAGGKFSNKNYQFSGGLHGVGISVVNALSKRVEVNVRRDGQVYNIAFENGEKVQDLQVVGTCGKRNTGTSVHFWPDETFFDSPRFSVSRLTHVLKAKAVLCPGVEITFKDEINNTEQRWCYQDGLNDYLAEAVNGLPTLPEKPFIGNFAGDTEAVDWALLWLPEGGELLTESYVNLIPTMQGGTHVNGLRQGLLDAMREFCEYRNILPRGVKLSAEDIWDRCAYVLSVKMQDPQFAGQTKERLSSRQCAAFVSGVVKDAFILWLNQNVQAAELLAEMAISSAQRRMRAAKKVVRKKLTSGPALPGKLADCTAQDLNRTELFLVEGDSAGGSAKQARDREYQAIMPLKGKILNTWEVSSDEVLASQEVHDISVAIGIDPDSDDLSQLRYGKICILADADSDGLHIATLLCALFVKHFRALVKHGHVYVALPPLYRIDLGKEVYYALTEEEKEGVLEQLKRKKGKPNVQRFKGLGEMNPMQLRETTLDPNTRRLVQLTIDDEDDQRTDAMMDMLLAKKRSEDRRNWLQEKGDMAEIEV

Chain of S. aureus DNA gyrase (P0A0K8 whole entry): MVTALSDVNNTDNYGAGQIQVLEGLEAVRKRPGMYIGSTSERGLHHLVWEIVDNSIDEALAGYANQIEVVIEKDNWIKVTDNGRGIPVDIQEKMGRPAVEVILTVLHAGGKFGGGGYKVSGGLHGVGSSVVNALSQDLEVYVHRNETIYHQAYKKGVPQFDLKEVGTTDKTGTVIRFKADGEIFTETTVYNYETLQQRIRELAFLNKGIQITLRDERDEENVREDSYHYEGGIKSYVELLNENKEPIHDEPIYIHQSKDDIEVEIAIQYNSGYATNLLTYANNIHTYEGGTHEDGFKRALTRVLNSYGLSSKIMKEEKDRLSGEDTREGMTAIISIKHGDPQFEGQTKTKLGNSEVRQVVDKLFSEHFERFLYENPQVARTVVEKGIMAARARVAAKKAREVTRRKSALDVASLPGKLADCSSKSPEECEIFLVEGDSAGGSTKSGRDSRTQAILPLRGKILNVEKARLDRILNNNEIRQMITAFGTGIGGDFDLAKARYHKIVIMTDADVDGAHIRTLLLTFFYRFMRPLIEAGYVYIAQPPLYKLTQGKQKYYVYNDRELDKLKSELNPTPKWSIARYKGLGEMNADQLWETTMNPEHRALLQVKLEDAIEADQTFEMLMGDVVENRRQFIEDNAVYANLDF
Chain of S. aureus DNA gyrase (P20831 whole entry): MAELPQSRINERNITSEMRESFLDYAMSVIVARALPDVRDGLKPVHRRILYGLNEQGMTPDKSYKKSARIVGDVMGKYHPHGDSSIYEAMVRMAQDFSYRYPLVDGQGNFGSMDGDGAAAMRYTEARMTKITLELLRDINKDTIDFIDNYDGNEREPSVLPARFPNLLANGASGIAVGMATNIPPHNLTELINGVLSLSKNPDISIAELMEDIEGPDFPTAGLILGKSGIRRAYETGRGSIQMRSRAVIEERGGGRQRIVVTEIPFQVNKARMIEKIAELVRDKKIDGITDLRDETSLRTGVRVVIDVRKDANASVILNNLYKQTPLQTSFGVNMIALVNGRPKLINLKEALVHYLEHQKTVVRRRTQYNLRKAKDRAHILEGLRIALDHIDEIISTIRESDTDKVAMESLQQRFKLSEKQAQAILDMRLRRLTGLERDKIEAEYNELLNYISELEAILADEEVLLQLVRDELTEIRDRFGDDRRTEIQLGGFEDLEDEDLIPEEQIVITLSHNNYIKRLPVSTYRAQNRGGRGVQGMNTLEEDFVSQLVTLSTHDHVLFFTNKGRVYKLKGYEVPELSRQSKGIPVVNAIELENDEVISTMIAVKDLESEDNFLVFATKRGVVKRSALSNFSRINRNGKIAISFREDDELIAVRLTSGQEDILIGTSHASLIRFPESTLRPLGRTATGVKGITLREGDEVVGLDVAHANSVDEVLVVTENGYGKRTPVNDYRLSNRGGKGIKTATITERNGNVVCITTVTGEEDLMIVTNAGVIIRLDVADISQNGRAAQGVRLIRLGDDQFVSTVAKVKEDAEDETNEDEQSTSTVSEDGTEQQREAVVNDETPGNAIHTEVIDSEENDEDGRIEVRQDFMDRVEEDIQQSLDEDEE

| SMILES | IC50 (S. aureus DNA gyrase) [nM] | inhibition at 50 µM (S. aureus DNA gyrase) [%] | IC50 (E. coli DNA gyrase) [nM] | inhibition at 50 µM (E. coli DNA gyrase) [%] | IC50 ([1]; IC50 Topo IV) [nM] | inhibition at 50 µM ([1]; S. aureus) [%] | IC50 (E. coli Topoisomerase IV) [nM] | inhibition at 50 µM (E. coli Topoisomerase IV) [%] | IC50 ([1]; S. aureus, Table 4, eight half-log concentrations ranging from 0.1 to 300 μM, read-out: IC50 Topo IV) [nM] |
| --- | --- | --- | --- | --- | --- | --- | --- | --- | --- |
| O=c1oc2ccc(F)cc2c2[nH]c(CN[C@H]3CC[C@H](n4c(=O)cnc5ncc(F)cc54)CC3)cc12 [Compound 209, 8-fluoro-2-({[trans-4-(7-fluoro-2-oxopyrido[2,3-b]pyrazin-1(2H)-yl)cyclohexyl]amino}methyl)[1]benzopyrano[4,3-b]pyrrol-4(1H)-one] | 300 | 100 | 130 | 100 | 220 | 100 | 1000 | 100 | – |
| O=c1oc2ccc(F)cc2c2[nH]c(CN[C@H]3CC[C@@H](n4c(=O)cnc5ncc(F)cc54)CC3)cc12 [Compound 210, 8-fluoro-2-({[cis-4-(7-fluoro-2-oxopyrido[2,3-b]pyrazin-1(2H)-yl)cyclohexyl]amino}methyl)[1]benzopyrano[4,3-b]pyrrol-4(1H)-one] | 1300 | 100 | 440 | 92 | 1310 | 84 | 13800 | 86 | – |
| O=c1oc2ccc(F)cc2c2[nH]c(CN[C@H]3CC[C@H](n4c(=O)cnc5ccc(F)cc54)CC3)cc12 [Compound 211, 8-fluoro-2-({[trans-4-(7-fluoro-2-oxoquinoxalin-1(2H)-yl)cyclohexyl]amino}methyl)[1]benzopyrano[4,3-b]pyrrol-4(1H)-one] | < 100 | 100 | < 100 | 100 | < 100 | 100 | < 100 | 100 | – |
| COc1cnc2ncc(=O)n([C@H]3CC[C@H](NCc4cc5c(=O)oc6ccc(F)cc6c5[nH]4)CC3)c2c1 [Compound 212, 8-fluoro-2-({[trans-4-(7-methoxy-2-oxopyrido[2,3-b]pyrazin-1(2H)-yl)cyclohexyl]amino}methyl)[1]benzopyrano[4,3-b]pyrrol-4(1H)-one] | 140 | 100 | 100 | 100 | 70 | 100 | 170 | 100 | – |
| COc1cnc2ncc(=O)n([C@H]3CC[C@@H](NCc4cc5c(=O)oc6ccc(F)cc6c5[nH]4)CC3)c2c1 [Compound 213, 8-fluoro-2-({[cis-4-(7-methoxy-2-oxopyrido[2,3-b]pyrazin-1(2H)-yl)cyclohexyl]amino}methyl)[1]benzopyrano[4,3-b]pyrrol-4(1H)-one] | 280 | 100 | 110 | 98 | 580 | 84 | 1000 | 97 | – |
| N#Cc1cnc2c(c1)N([C@H]1CC[C@H](NCc3cc4c(=O)oc5ccc(F)cc5c4[nH]3)CC1)C(=O)CO2 [Compound 214, 1-(trans-4-{[(8-fluoro-4-oxo-1,4-dihydro[1]benzopyrano[4,3-b]pyrrol-2-yl)methyl]amino}cyclohexyl)-2-oxo-2,3-dihydro-1H-pyrido[2,3-b][1,4]oxazine-7-carbonitrile] | 160 | 100 | 120 | 99 | 570 | 100 | 1030 | 100 | – |
| O=c1oc2ccc(F)cc2c2[nH]c(CN[C@H]3CC[C@H](n4c(=O)ccc5ccc(F)cc54)CC3)cc12 [Compound 216, 8-fluoro-2-({[trans-4-(7-fluoro-2-oxoquinolin-1(2H)-yl)cyclohexyl]amino}methyl)[1]benzopyrano[4,3-b]pyrrol-4(1H)-one] | 310 | 100 | 130 | 100 | 290 | 100 | 250 | 100 | – |
| NC(=O)[C@]1(NCc2cc3c(=O)oc4ccc(F)cc4c3[nH]2)CC[C@H](N2C(=O)COc3ncc(F)cc32)CC1 [Compound 217, Trans-1-{[(8-fluoro-4-oxo-1,4-dihydro[1]benzopyrano[4,3-b]pyrrol-2-yl)methyl]amino}-4-(7-fluoro-2-oxo-2,3-dihydro-1H-pyrido[2,3-b][1,4]oxazin-1-yl)cyclohexane-1-carboxamide] | 2150 | 100 | 1450 | 82 | 2720 | 100 | 690 | 50 | – |
| COc1ccc2ccc(=O)n([C@H]3CC[C@H](NCc4cc5c(=O)oc6ccc(F)cc6c5[nH]4)CC3)c2c1 [Compound 219, 8-fluoro-2-({[trans-4-(7-methoxy-2-oxoquinolin-1(2H)-yl)cyclohexyl]amino}methyl)[1]benzopyrano[4,3-b]pyrrol-4(1H)-one] | 220 | 100 | 220 | 100 | 650 | 100 | 220 | 100 | – |
| O=C1COc2ncc(F)cc2N1[C@H]1CC[C@](CO)(NCc2cc3c(=O)oc4ccc(F)cc4c3[nH]2)CC1 [Compound 220, 8-fluoro-2-({[trans-4-(7-fluoro-2-oxo-2,3-dihydro-1H-pyrido[2,3-b][1,4]oxazin-1-yl)-1-(hydroxymethyl)cyclohexyl]amino}methyl)[1]benzopyrano[4,3-b]pyrrol-4(1H)-one] | 1970 | 100 | 680 | 100 | 2910 | 100 | 740 | 50 | – |
| O=C1COc2ncc(F)cc2N1[C@H]1CC[C@H](N(CCO)Cc2cc3c(=O)oc4ccc(F)cc4c3[nH]2)CC1 [Compound 221, 8-fluoro-2-({[trans-4-(7-fluoro-2-oxo-2,3-dihydro-1H-pyrido[2,3-b][1,4]oxazin-1-yl)cyclohexyl](2-hydroxyethyl)amino}methyl)[1]benzopyrano[4,3-b]pyrrol-4(1H)-one] | 2760 | 100 | 920 | 81 | 2630 | 100 | 670 | 50 | – |
| O=C1COc2ncc(F)cc2N1[C@H]1CC[C@H](NCc2cc3c(=O)oc4cccnc4c3[nH]2)CC1 [Compound 301] | 720 | – | 460 | – | 70300 | – | 430 | – | – |
| COc1cnc2c(c1)N([C@H]1CC[C@H](NCc3cc4c(=O)oc5ccc(F)cc5c4[nH]3)CC1)C(=O)CO2 [Compound 302, 8-fluoro-2-({[trans-4-(7-methoxy-2-oxo-2,3-dihydro-1H-pyrido[2,3-b][1,4]oxazin-1-yl)cyclohexyl]amino}methyl)[1]benzopyrano[4,3-b]pyrrol-4(1H)-one] | 580 | – | 590 | – | – | – | 120 | – | 3260 |
| O=C1COc2ncc(F)cc2N1C1CCN(CC(O)CNc2cc(=O)oc3ccc(F)cc23)CC1 (stereo not drawn) [Compound 303, 7-fluoro-1-(1-{3-[(6-fluoro-2-oxo-2H-1-benzopyran-4-yl)amino]-2-hydroxypropyl}piperidin-4-yl)-1H-pyrido[2,3-b][1,4]oxazin-2(3H)-one] | 9920 | – | 2670 | – | > 100000 | – | 620 | – | – |
| O=C1COc2ncc(F)cc2N1[C@H]1CC[C@H](NCc2cc3ncc4c(c3[nH]2)OCCO4)CC1 [Compound 314, 1-[trans-4-{[(2,3-dihydro-9H-[1,4]dioxino[2,3-d]pyrrolo[3,2-b]pyridin-8-yl)methyl]amino}cyclohexyl]-7-fluoro-1H-pyrido [2,3-b][1,4]oxazin-2(3H)-one] | 7100 | – | 850 | – | > 100000 | – | 1140 | – | – |
| O=C1COc2ncc(F)cc2N1[C@H]1CC[C@H](NCCNc2cc(=O)oc3ccc(F)cc23)CC1 [Compound 354, 7-fluoro-1-[trans-4-({2-[(6-fluoro-2-oxo-2H-1-benzopyran-4-yl)amino]ethyl}amino)cyclohexyl]-1H-pyrido[2,3-b][1,4]oxazin-2(3H)-one] | 350 | – | 470 | – | 920 | – | 180 | – | – |

Reference: US10633366B2, “Antibacterial compounds” (AZIENDE CHIMICHE RIUNITE ANGELINI FRANCESCO A.C.R.A.F. …, priority 2016, dated 2020)
